The target in one test is T1, human soluble epoxide hydrolase (hsEH) (Homo sapiens, UniProt P34913).
T1 construct: gene EPHX2; C-terminal domain (CTD)
T1 sequence (P34913 230-555 limits assumed): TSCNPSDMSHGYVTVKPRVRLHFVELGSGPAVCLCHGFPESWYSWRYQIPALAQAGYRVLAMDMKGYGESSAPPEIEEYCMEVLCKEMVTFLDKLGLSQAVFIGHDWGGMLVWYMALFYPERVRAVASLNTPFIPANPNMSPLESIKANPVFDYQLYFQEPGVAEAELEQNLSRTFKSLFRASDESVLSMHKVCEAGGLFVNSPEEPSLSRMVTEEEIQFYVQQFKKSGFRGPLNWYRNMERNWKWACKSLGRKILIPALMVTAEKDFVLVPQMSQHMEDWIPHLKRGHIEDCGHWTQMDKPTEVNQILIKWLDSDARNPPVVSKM
Put plainly: single-injection ITC enzyme kinetics (KM; saturation not reached). Type of test: biochemical.
A word on the Km: it is the substrate concentration at which the rate is half of its maximum. With `CCCCC/C=C\C/C=C\C/C=C\CC1OC1CCCC(=O)O` (stereo not shown) [5(6)EET], the Km amounted to 46.6 ± 11 µM.

The target of the next test is T1, human soluble epoxide hydrolase (hsEH). In words: single-injection ITC enzyme kinetics (KM). It is filed as biochemical.
In the case of `CCC1OC1C/C=C\C/C=C\C/C=C\C/C=C\CCCC(=O)O` (stereo not shown) [17(18)EpETE], the Km was 26.4 ± 4.05 µM.

Consider `CCCCC/C=C\CC1OC1C/C=C\C/C=C\CCCC(=O)O` (stereo not shown) [11(12)EET], for which the Km turned out to be 1.74 ± 0.2 µM.

Consider `CCCCCC1OC1C/C=C\C/C=C\C/C=C\CCCC(=O)O` (stereo not shown) [14(15)EET], for which the Km worked out at 12.9 ± 1.94 µM.

For the compound `CC/C=C\C/C=C\C/C=C\CC1OC1C/C=C\CCCC(=O)O` (stereo not shown) [8(9)EpETE], the Km is 9.74 ± 0.13 µM.

Regarding `CCC1OC1C/C=C\C/C=C\C/C=C\C/C=C\C/C=C\CCC(=O)O` (stereo not shown) [19(20)EpDPE], the Km came out at 26.6 ± 1.21 µM.

Regarding `CCCCC/C=C\C/C=C\CC1OC1C/C=C\CCCC(=O)O` (stereo not shown) [8(9)EET], the Michaelis constant (Km) stood at 23.1 ± 2.39 µM.

(Values after article PMC7041903, “Isothermal Titration Calorimetry Enables Rapid Characterization of Enzyme Kinetics and Inhibition for the Human Soluble Epoxide Hydrolase” (Analytical Chemistry, 2019).)
